This data set is described as follows: Mouse pharmacokinetics assay (IV and PO). The following applies: mice. The format is in vivo, CD-1 mice.

Bounds are passed on as bounds.

Here are results for 1 compound from PMC5392761, “Discovery of Antimalarial Azetidine-2-carbonitriles That Inhibit P. falciparum Dihydroorotate Dehydrogenase” (ACS Medicinal Chemistry Letters, 2017).

The term bioavailability denotes dose-corrected exposure relative to a reference, in per cent.

As to `CCCNC(=O)N1[C@H](C#N)[C@H](c2ccc(-c3ccc(C(F)(F)F)c(C(F)(F)F)c3)cc2)[C@H]1CO` [Compound 27], the bioavailability (female, CD-1, mouse, in vivo, PO 5 mg/kg, IV 1 mg/kg, read-out: F, bioavailability) turned out to be 94%. For the setting “IV 1 mg/kg”, the “C0, initial serum concentration at t = 0” value was 4.9 µM and the “Vss, volume of distribution at steady state” value is on record as 0.37 L/kg. Besides, where the note is “PO 5 mg/kg, read-out: Cmax, peak serum concentration”, the Cmax came out at 16.9 µM. Also, the “DNAUC0-inf, dose-normalized area under the plasma concentration vs time curve” value (following PO dosing 5 mg/kg) is more than 54.3 µM·h.
